Here are results for one compound from US20240140962A1, “5,6-DIHYDROTHIENO[3,4-H]QUINAZOLINE COMPOUND” (MEDSHINE DISCOVERY INC., priority 2021, published 2024).

The subject of data set [1] is human colon cancer HCT116 cells subcutaneous xenograft tumor. Description: In vivo pharmacodynamic study, subcutaneous xenograft tumor model of human colon cancer HCT116 cells. Further details: species or system BALB/c Nude mouse. The note with it: tumor volume on day 22 after dosing. The method, then:
In this experiment, human colon cancer HCT116 cells were subcutaneously transplanted into BALB/c Nude mouse model to evaluate the antitumor effect of the test compound in vivo.
HCT116 cell culture: 10% fetal calf serum was added to McCoy's 5A medium and cultured in 37° C. 5% CO2 cell incubator. When the cell saturation reached 80% to 90% and the number reached the requirement, cells were collected, counted and inoculated subcutaneously into BALB/c Nude mice (female, 6 to 7 weeks old)
When the tumors grew to a certain size, the animals with tumor volumes that were too large, too small, or with irregular tumor shapes were eliminated, and animals with tumor volumes ranging from 103.12 to 174.35 mm^3 were selected. According to the tumor volume, the animals were divided into 6 groups by random block method, and each group was composed of 6 mice wherein the average volume of the tumor was about 147.12 mm^3 , and the experimental grouping and dosing regimen were shown in Table 5 below. The health status and death of the animals were monitored every day. Routine inspections included observation of tumor growth and the effects of drug treatment on the daily behavior of the animals, such as behavioral activities, food and water intake, body weight changes (measured twice a week), tumor size (tumor volume was measured twice a week), appearance signs or other abnormal conditions.
The formula for calculating tumor volume (TV) was: ½×a×b^2, where a and b were the measured length and width of the tumor, respectively. The formula for calculating the tumor inhibition rate TGI (%) was: TGI (%)=[1−(average tumor volume at the end of administration of a certain treatment group−average tumor volume at the beginning of administration of this treatment group)/(average tumor volume at the end of treatment of the solvent control group−average tumor volume at the beginning of treatment in solvent control group)]×100%.
In this study, the experimental data were expressed as Mean±SEM. Statistical analysis was based on the data of RTV at the end of the experiment using IBM SPSS Statistics software. The comparison between two groups was analyzed by T test, and the comparison between three or more groups was analyzed by one-way ANOVA. If the variances were homogeneous (the F value had no significant difference), the Tukey's method was used for analysis. If the variances were not homogeneous (the F value had significant differences), and the Games-Howell method was used for testing. p<0.05 was considered as a significant difference.
(In xenograft studies the graft and the host belong to different species.)

In data set [2] the test system is HCT116 cells. Description: HCT116 cytological activity in vitro (3D CellTiter-Glo proliferation). The format is cell-based, human. The note with it: Homo sapiens, HCT-116, 120 h, 5 days culture, ultra-low adsorption plates. As for the experimental part: McCoy's 5A medium, penicillin/streptomycin antibiotics was purchased from Vicente, and fetal bovine serum was purchased from Biosera. 3D CellTiter-Glo (cell viability chemiluminescence assay reagent) reagent was purchased from Promega. HCT116 cell line was purchased from Nanjing Cobioer Biosciences Co., Ltd. Envision multimode microplate reader (PerkinElmer).
HCT116 cells were seeded in ultra-low adsorption 96-well U-plates, 80 μL of cell suspension per well, which contained 1000 HCT116 cells. Cell plates were cultured overnight in a carbon dioxide incubator.
The compound to be tested was 5-fold diluted to the 9th concentration with a pipette, that is, diluted from 2 mM to 5.12 nM, and a double-well experiment was set up. 78 μL of medium was added to the intermediate plate, and then 2 μL of each well of the gradient diluted compound was transferred to the intermediate plate according to the corresponding position, 20 μL of each well was transferred to the cell plate after mixing well. Compound concentrations transferred to cell plates ranged from 10 μM to 0.0256 nM. Cell plates were cultured in a carbon dioxide incubator for 5 days. Another cell plate was prepared, and the signal value was read as the maximum value (Max value in the following equation) on the day of drug addition to participate in data analysis.
Every 100 μL of cell viability chemiluminescent detection reagent was added to the cell plate, and incubated at room temperature for 10 minutes to stabilize the luminescent signal. A multimode microplate reader was used to read.
The equation (Sample−Min)/(Max−Min)*100% was used to convert the original data into an inhibition rate, and the value of IC50 can be obtained by curve fitting with four parameters (“log(inhibitor) vs. response in GraphPad Prism—Variable slope” mode). Table 3 provides the inhibitory activity of the compounds of the present disclosure against the proliferation of HCT116 cells.
For orientation: In ATP-based viability assays light output follows the ATP content of the culture.

The target of data set [3] is PLK3 (Homo sapiens (Human), UniProt Q9H4B4). In words: PLK3 kinase activity in vitro, 33P isotope-labeled kinase activity test. The class given is biochemical. The note with it: 33P-ATP 50 μM, PLK3 10 nM. The method, then: (§1) The ^33P isotope-labeled kinase activity test (Reaction Biology Corp) was used to determine the IC50 value to evaluate the inhibitory ability of the test compound to the human PLK family protein kinase PLK2/PLK3/PLK4.
Chain of PLK3 (Q9H4B4 whole entry): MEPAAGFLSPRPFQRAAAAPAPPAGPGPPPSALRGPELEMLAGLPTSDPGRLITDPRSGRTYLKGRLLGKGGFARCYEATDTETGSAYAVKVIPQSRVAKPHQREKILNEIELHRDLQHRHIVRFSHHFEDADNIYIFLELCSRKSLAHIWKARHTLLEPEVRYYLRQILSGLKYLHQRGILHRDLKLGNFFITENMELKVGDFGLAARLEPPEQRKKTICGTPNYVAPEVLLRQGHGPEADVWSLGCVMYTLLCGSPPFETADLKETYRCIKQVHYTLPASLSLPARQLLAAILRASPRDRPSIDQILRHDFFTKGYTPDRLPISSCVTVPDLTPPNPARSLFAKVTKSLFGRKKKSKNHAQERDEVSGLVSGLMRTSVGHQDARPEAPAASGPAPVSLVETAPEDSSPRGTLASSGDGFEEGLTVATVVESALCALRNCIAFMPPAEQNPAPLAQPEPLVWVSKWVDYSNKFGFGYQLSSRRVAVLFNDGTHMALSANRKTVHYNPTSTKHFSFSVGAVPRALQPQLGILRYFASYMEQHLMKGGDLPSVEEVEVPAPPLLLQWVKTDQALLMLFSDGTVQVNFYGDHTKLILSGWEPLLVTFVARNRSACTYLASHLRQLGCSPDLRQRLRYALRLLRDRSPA
(§2) Buffer conditions: 20 mM HEPES (pH 7.5), 10 mM MgC2, 1 mM EGTA, 0.01% Brij35, 0.02 mg/ml BSA, 0.1 mM Na3VO4, 2 mM DTT, 1% DMSO.
(§3) Test steps: At room temperature, the compounds to be tested were dissolved in DMSO to prepare a 10 mM solution for use. The substrate Casein was dissolved in the freshly prepared buffer (with a final concentration of 20 μM), and the tested PLK2/PLK3/PLK4 kinases (with a final concentration of 15/10/150 nM, respectively) were added thereto and mixed well. The acoustic wave pipetting system Echo 550 was used to add the mother solution of the test compound dissolved in DMSO to the above mixed reaction mixture according to the set final concentration gradient (the highest final concentration was 1 μM, 3-fold dilution, 10 gradients). After incubation at room temperature for 20 minutes, ^33P-ATP (with a final concentration of 30/50/10 μM, respectively) was added, then after incubation at room temperature for 120 minutes, the reaction mixture was spotted on P81 ion exchange filter paper (Whatman #3698-915).

Data set [4] is described as follows: Pharmacokinetic study in CD-1 male mice by oral administration and intravenous injection. The class given is in vivo. The note with it: mouse, plasma; for AUC(0-t): read-out: Area under the plasma concentration-time curve AUC0-24 h. The source says: The purpose of this experiment is to study the pharmacokinetics of the test compound in the plasma of CD-1 male mice after intravenous injection and oral administration.
Intravenous injection group: an appropriate amount of the test compound was weighed and dissolved in 20% SBE-b-CD aqueous solution and the pH was adjusted to 4 to 5 with 6 M hydrochloric acid, and the mixture was vortexed for 2, minutes to obtain a clear solution, and then pH was adjusted around 7 with 5 N sodium hydroxide, and the mixture was vortexed for 1 minute to prepare a 1.5 mg/mL clear solution, which was filtered through a 0.22 μm microporous membrane for later use. CD-1 male mice from 6 to 10 weeks old were selected and given a solution of the test compound intravenously. Samples were collected at 0.083, 0.25, 0.5, 1, 2, 4, 6, 8, and 24 hours.
Oral administration group: an appropriate amount of the test compound was weighed and dissolved in 20% SBE-b-CD aqueous solution, and the pH was adjusted to 3 to 4 with 6 M hydrochloric acid, and the mixture was vortexed for 2, minutes to obtain a clear solution, and then pH was adjusted around 7 with 5 N sodium hydroxide, and mixture was vortexed for 1 minute to prepare a 2.0 mg/mL clear solution for later use. CD-1 male mice between 6 and 10 weeks of age were selected and given the test compounds orally. Samples were collected at 0.25, 0.5, 1, 2, 4, 6, 8, 10, and 24 hours.
Approximately 50 μL of whole blood was collected through the jugular vein at each time point for plasma preparation for concentration determination by high performance liquid chromatography-tandem mass spectrometry (LC-MS/MS). All animals were euthanized under CO2 anesthesia after collecting the PK samples at the last time point. The plasma concentration was processed using the non-compartmental model of WinNonlin™ Version 6.3 (Pharsight, Mountain View, CA) pharmacokinetic software, and the pharmacokinetic parameters were calculated using the linear logarithmic trapezoidal method, and the experimental results are shown in Table 4.

Data set [5] addresses PLK2 (Homo sapiens (Human), UniProt Q9NYY3). Description: PLK2 kinase activity in vitro, 33P isotope-labeled kinase activity test. The format is biochemical. To be noted: 33P-ATP 30 μM, PLK2 15 nM. As for the experimental part:
as §1, §2, §3

For data set [6], the target named is PLK4 (Homo sapiens (Human), UniProt O00444). In words: PLK4 kinase activity in vitro, 33P isotope-labeled kinase activity test. The format is biochemical. To be noted: 33P-ATP 10 μM, PLK4 150 nM. The method, then: as §1, §2, §3
Chain of PLK4 (O00444 whole entry): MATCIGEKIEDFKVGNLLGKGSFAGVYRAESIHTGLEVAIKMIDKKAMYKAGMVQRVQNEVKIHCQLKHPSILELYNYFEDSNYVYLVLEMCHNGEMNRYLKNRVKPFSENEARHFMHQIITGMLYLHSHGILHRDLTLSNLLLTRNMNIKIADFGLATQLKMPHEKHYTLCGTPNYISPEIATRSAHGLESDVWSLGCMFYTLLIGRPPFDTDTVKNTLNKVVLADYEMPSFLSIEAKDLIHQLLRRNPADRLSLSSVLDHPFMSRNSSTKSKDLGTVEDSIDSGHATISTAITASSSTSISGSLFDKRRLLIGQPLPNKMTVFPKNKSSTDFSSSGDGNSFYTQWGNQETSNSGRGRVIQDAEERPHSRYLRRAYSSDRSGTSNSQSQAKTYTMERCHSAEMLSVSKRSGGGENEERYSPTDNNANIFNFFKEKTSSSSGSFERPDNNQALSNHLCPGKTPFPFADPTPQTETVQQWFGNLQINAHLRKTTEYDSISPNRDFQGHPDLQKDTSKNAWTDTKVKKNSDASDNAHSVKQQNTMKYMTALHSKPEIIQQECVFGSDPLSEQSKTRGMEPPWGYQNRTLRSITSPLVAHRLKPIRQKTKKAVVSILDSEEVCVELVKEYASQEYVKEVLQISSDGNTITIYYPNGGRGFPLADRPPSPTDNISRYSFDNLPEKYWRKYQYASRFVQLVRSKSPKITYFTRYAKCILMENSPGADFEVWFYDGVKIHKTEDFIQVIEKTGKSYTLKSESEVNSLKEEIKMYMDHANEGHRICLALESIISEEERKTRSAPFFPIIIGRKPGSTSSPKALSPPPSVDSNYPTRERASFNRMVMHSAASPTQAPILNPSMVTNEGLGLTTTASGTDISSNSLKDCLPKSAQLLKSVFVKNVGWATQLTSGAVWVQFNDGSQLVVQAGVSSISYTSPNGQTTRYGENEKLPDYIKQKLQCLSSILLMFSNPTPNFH

Structures are written as SMILES. Like-named read-outs stand apart in the source and are kept apart here.

Chain of PLK2 (Q9NYY3 whole entry): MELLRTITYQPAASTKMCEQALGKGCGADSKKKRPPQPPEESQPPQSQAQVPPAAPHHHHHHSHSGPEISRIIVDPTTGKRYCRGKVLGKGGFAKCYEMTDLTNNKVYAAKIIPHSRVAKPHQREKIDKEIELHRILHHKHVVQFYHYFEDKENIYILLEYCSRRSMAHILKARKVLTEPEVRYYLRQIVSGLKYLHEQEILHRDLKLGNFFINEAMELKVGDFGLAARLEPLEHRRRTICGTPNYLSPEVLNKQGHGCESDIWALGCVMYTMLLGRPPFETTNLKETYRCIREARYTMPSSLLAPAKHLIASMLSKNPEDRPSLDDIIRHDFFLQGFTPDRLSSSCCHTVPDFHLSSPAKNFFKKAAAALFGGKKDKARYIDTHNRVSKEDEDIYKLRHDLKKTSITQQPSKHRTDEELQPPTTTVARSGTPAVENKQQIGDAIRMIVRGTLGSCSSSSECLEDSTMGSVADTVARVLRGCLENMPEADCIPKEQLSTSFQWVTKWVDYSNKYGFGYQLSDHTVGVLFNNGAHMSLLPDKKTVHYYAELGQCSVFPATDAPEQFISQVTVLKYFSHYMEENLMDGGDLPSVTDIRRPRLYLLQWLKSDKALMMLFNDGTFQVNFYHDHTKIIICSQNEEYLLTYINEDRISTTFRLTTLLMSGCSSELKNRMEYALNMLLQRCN

As a reminder, the TGI is how far tumour growth fell short of that in controls. The IC50 is the concentration that gives 50% inhibition. As usually defined, the half-life is the time in which the quantity being followed falls by half. The Tmax is the time at which the peak concentration occurs. What is called bioavailability is the share of a dose that reaches the circulation, judged against a reference dose that is usually intravenous. Consider `CSc1sc(C(N)=O)c2c1-c1nc(Nc3cc(N4CCN(C)CC4)ccc3OC(F)(F)F)ncc1CC2` [Compound 1], for which the TGI was found to be 72.9% in data set [1] (30 mg/kg PO QD (5 days on, 2 days off)) and 87.3% in data set [1] (45 mg/kg PO QD (5 days on, 2 days off)). Further, the half-inhibitory concentration (IC50) was 0.027 µM in data set [2], > 10 µM in data set [3], > 10 µM in data set [5] and > 10 µM in data set [6]. Moreover, in data set [4] (IV, 0.5 mg/kg, read-out: Apparent volume of distribution Vdss), the Vd stood at 3.37 L/kg. Further, the AUC(0-t) in data set [4] (IV, 0.5 mg/kg) worked out at 0.41 µM·h; in data set [4] (PO, 2.0 mg/kg) it was 1.05 µM·h. The clearance in data set [4] (IV, 0.5 mg/kg, read-out: Clearance CL) stood at 37.8 mL/min/kg. Besides, the half-life in data set [4] (IV, 0.5 mg/kg, read-out: Half-life T½ (converted)) is 1.47 h. In addition, the Cmax in data set [4] (PO, 2.0 mg/kg, read-out: Peak concentration Cmax) stood at 386 nM. Moreover, the Tmax in data set [4] (PO, 2.0 mg/kg, read-out: Peak time Tmax) was 0.75 h. For the same compound, the bioavailability in data set [4] (PO 2.0 mg/kg vs IV 0.5 mg/kg, read-out: Bioavailability F) is 66.4%.
